Reference: patent US9498506B2, “Pharmaceutical composition for preventing or treating thyroid diseases, comprising extract from Lonicera caerulea L. var. edulis fruits as active ingredient” (H&K BIOSCIENCE CO., LTD., priority 2013, dated 2016)
Marks after values point to notes of the source that are not given here.

Assays:
Assay type in all cases: in vivo
[1] = test system: LT4-induced hyperthyroidism rat; assay: Histopathological observation of thyroid, LT4-induced hyperthyroidism animal model; conditions: LT4-induced hyperthyroidism rats; 10 mg/kg intraperitoneally
Protocol: (§1) Total number of 150 male SPF. VAF Outbred-Rats, Crl:CD [Sprague-Dawley, SD] rats (6 weeks old, OrientBio, Seungnam, Korea) were prepared and refined for 8 days in a laboratory environment. After that, rats with consistent weight (average: 233.70 g±10.47 g, 217 g to 252 g) were selected, and 8 rats per group (total of 56 rats) were used for the experiment. In the present invention, all the experimental animals were treated according to animal ethics of the animal experimentation ethics committee of Daegu Haany University. The experiment was conducted after pre-approval.
(§2) Based on conventional methods known in the art (Clin Exp Pharmacol Physiol. 2007 November; 34(11):1217-9, etc.), a hyperthyroidism animal model was prepared by administering LT4 (levothyroxine). Specifically, hyperthyroidism was induced by dissolving 3 mg of LT4 into 10 ml of saline solution and subcutaneously injecting the capacity of 1 ml/kg into dorsal neck of the animal model once everyday for a period of 27 days. On the other hand, in the intact control group, the same amount of saline solution instead of LT4 was administered for the same period in the same manner as described above (FIG. 1).
(§3) Targeting the hyperthyroidism animal prepared as above, 500, 250, and 125 mg/kg of the extract from Lonicera caerulea L. car. Edulis fruits (BH) prepared in Example 1-1 were dissolved in sterilized distilled water, respectively, and the capacity of 5 ml/kg was orally administered forcibly once a day from Day 12 to Day 15 since the treatment.
On the other hand, Lonicerae Flos aqueous hot water extract (LF), an experimental group, was also dissolved in sterilized distilled water, and the capacity of 250 mg/kg was orally administered for the same period in the same manner as described above. 10 mg/kg of PTU was dissolved in saline solution, and the capacity of 1 ml/kg was intraperitoneally administered for the same period in the same manner as described above (Table 1, FIG. 1). […]

[2] = test system: LT4-induced hyperthyroidism rat; assay: Change in the weight of thyroid, LT4-induced hyperthyroidism animal model; conditions: LT4-induced hyperthyroidism rats; 10 mg/kg intraperitoneally
Protocol: as §1
Based on conventional methods known in the art (Clin Exp Pharmacol Physiol. 2007 November; 34(11):1217-9, etc.), a hyperthyroidism animal model was prepared by administering LT4 (levothyroxine). […]
On the final day of sacrifice, left thyroids of all the experimental animals were extracted and isolated and next, the weight was measured and designated as the absolute weight. In order to minimize the secondary change accompanied with the change in weight, relative thyroid gland weight (Absolute […] weight/body weight at sacrifice ×100), which was the ratio of the absolute weight of the thyroid based on body weight, was calculated.

[3] = test system: LT4-induced hyperthyroidism rat; assay: Change in weight, LT4-induced hyperthyroidism animal model; conditions: LT4-induced hyperthyroidism rats
Protocol: as §1, §2, §3
On the other hand, Lonicerae Flos aqueous hot water extract (LF), an experimental group, was also dissolved in sterilized distilled water, and the capacity of 250 mg/kg was orally administered for the same period in the same manner as described above. 10 mg/kg of PTU was dissolved in saline solution, and the capacity of 1 ml/kg was intraperitoneally administered for the same period in the same manner as described above (Table 1, FIG. 1).
Next, the effects on treating hyperthyroidism was confirmed by observing the weight change, thyroid weight change, content change in blood thyroid hormone (TSH, T3, and T4), and histopathological change in the thyroid (the total thickness of thyroid in which the cells have been cut, average diameter of thyroid follicle, and thickness of thyroid epithelium) of the rats for each group.

[4] = test system: LT4-induced hyperthyroidism rat; assay: Thyroid hormone content in blood (radioimmunoassay), LT4-induced hyperthyroidism animal model; conditions: LT4-induced hyperthyroidism rats; 10 mg/kg intraperitoneally
Protocol: as §1, §2, §3
On the other hand, Lonicerae Flos aqueous hot water extract (LF), an experimental group, was also dissolved in sterilized distilled water, and the capacity of 250 mg/kg was orally administered for the same period in the same manner as described above. […]
The TSH, T3, and T4 contents in blood were measured in the units including ng/ml or μg/ml by Gamma count Cobra II (Packard Co., IL, USA) utilizing Coat A count Total TSH, T3 or T4 kit (DPC, CA, USA), respectively, based on Radioimmunoassay method (Toxicol Sci 69(1): 79-91, 2002).

[5] = test system: PTU-induced hypothyroidism rat; assay: Change in the weight of reproductive organs, PTU-induced hypothyroidism animal model; conditions: PTU-induced hypothyroidism rats; 0.5 mg/kg intraperitoneally
Protocol: (§4) Experimental animals are the same as described in Experimental Example 3.
(§5) Based on conventional methods known in the art (Neuro Endocrinol Lett. 1999; 20:311-14; Toxicol Sci. 2002; 69:79-91; Korean J Orient Physiol Pathol. 2010; 24:630-7), a hypothyroidism animal model was prepared by administering Propylthiouracil (PTU). Specifically, hypothyroidism was induced by dissolving 100 mg of PTU into 10 ml of saline solution and subcutaneously injecting the capacity of 1 ml/kg into dorsal neck of the animal model once everyday for a period of 28 days. On the other hand, in the intact control group, the same amount of saline solution instead of PTU was administered for the same period in the same manner as described above (FIG. 5).
(§6) Targeting the hypothyroidism animal prepared as above, 500, 250, and 125 mg/kg of the extract from Lonicera caerulea L. car. Edulis fruits (BH) prepared in Example 1-1 were dissolved in sterilized distilled water, respectively, and the capacity of 5 ml/kg was orally administered forcibly once a day for 42 consecutive days, 2 weeks prior to the PTU treatment. On the other hand, LF, an experimental group, was also dissolved in sterilized distilled water, and the capacity of 250 mg/kg was orally administered for the same period in the manner as described above.
(§7) 0.5 mg/kg of LT4 was dissolved in saline solution, and the capacity of 1 ml/kg was intraperitoneally administered once a day for 28 consecutive days since the PTU treatment day in the same manner as described above (Table 6, FIG. 5).

[6] = test system: PTU-induced hypothyroidism rat; assay: Testicular antioxidant defense system, PTU-induced hypothyroidism animal model; conditions: testis, PTU-induced hypothyroidism rats; 0.5 mg/kg intraperitoneally
Protocol: as §4, §5, §6, §7

[7] = test system: PTU-induced hypothyroidism rat; assay: Thyroid hormone content in blood, PTU-induced hypothyroidism animal model; conditions: PTU-induced hypothyroidism rats; 0.5 mg/kg intraperitoneally
Protocol: as §4, §5, §6, §7
(§8) Next, the effects on treating hypothyroidism was confirmed by observing the weight change, thyroid weight change, content change in blood thyroid hormone (TSH, T3, and T4), and histopathological changes in the thyroid (the total thickness of thyroid in which the cells have been cut and average diameter of thyroid follicle) of the rats for each group.

[8] = test system: PTU-induced hypothyroidism rat; assay: Histopathological observation of thyroid, PTU-induced hypothyroidism animal model; conditions: PTU-induced hypothyroidism rats; 0.5 mg/kg intraperitoneally
Protocol: as §4, §5
as §6, with “above. […]” for “above.”

[9] = test system: PTU-induced hypothyroidism rat; assay: Histopathological observation of reproductive organs, PTU-induced hypothyroidism animal model; conditions: PTU-induced hypothyroidism rats; 0.5 mg/kg intraperitoneally
Protocol: as §4, §5, §6, §7

[10] = test system: PTU-induced hypothyroidism rat; assay: Change in weight, PTU-induced hypothyroidism animal model; conditions: PTU-induced hypothyroidism rats
Protocol: as §4, §5, §6, §7
as §8, with “group. […]” for “group.”

[11] = test system: PTU-induced hypothyroidism rat; assay: Change in the thyroid weight, PTU-induced hypothyroidism animal model; conditions: PTU-induced hypothyroidism rats; 0.5 mg/kg intraperitoneally
Protocol: as §4, §5
as §6, with “above. […]” for “above.”

[12] = test system: PTU-induced hypothyroidism rat; assay: Content of sex hormones in serum, PTU-induced hypothyroidism animal model; conditions: PTU-induced hypothyroidism rats; LT4 0.5 mg/kg intraperitoneally
Protocol: as §4, §5, §6, §7

SMILES: CCCc1cc(=O)[nH]c(=S)[nH]1 [PTU, 6-n-propyl-2-thiouracil]
- Thyroid glands Mean follicular epithelium thickness [1]: 14.50 ± 2.84^gh μm/follicle
- Thyroid glands Mean follicular thickness [1]: 71.87 ± 12.05^c μm/follicle
- Thyroid glands Total thickness [1]: 1628.19 ± 174.84^ac μm/central region
- Absolute organ weights Thyroid gland [2]: 8.88 ± 2.03^h mg
- Relative organ weights (% of BW) Thyroid gland [2]: 2.71 ± 0.64^c mg/g of BW
- Body weight gains during 15 days of PTU and herbal extracts treatment ([3]; 10 mg/kg intraperitoneally): 58.75 ± 15.04^ab
- Body weight gains during 27 days of total experiments ([3]; 10 mg/kg intraperitoneally): 113.63 ± 24.49^ab
- days after administration from which weight was considerably increased compared to LT4 control ([3]; 10 mg/kg intraperitoneally): 5 days
- Body weight gains during 12 days of LT4 pretreatment ([3]; 10 mg/kg intraperitoneally group, period before test substance dosing): 54.50 ± 13.15^d
- Serum thyroid hormone levels TSH [4]: 1.37 ± 0.24^ac ng/ml
- Serum thyroid hormone levels Thyroxine [4]: 71.30 ± 23.13^bc μg/ml
- Serum thyroid hormone levels Tri-iodothyronine [4]: 0.80 ± 0.18^ac ng/ml

SMILES: N[C@@H](Cc1cc(I)c(Oc2cc(I)c(O)c(I)c2)c(I)c1)C(=O)O [LT4, Levothyroxine]
- Absolute organ weights Epididymis [5]: 0.342 ± 0.042^ac g
- Absolute organ weights Prostate [5]: 0.492 ± 0.042^ef g
- Absolute organ weights Testis [5]: 1.082 ± 0.045^eg
- Relative organ weights Epididymis [5]: 0.086 ± 0.012^gi % of body weights
- Relative organ weights Prostate [5]: 0.124 ± 0.013^gf % of body weights
- Relative organ weights Testis [5]: 0.273 ± 0.021^ac % of body weights
- Antioxidant defense system Catalase [6]: 8.63 ± 2.13^eg U/mg protein
- Antioxidant defense system H2O2 [6]: 80.63 ± 16.27^ab nM/mg protein
- Antioxidant defense system SOD [6]: 8.50 ± 2.00^eg U/mg protein
- Lipid peroxidation Malondialdehyde [6]: 5.54 ± 0.91 nM/mg protein
- Serum thyroid hormone levels TSH [7]: 10.74 ± 1.62^bc ng/ml
- Serum thyroid hormone levels Thyroxine [7]: 6.75 ± 1.45^e μg/ml
- Serum thyroid hormone levels Tri-iodothyronine [7]: 19.24 ± 3.21^a ng/ml
- Thyroid gland Mean follicular diameters [8]: 102.24 ± 12.47^ac μm/follicle
- Thyroid gland Total thickness [8]: 1542.77 ± 137.07^bc μm/central regions
- Epididymis A/O tubule percentages [9]: 56.00 ± 7.52^df %/mm^2
- Epididymis Mean tubular diameters [9]: 217.98 ± 14.97^df μm/tubules of head
- Prostate Atrophic tubule percentage [9]: 73.50 ± 10.80^ab %/mm^2
- Prostate Mean tubular epithelial thickness [9]: 11.82 ± 2.76^df μm/tubules
- Testis Mean semniferous tubule diameters [9]: 195.00 ± 13.29^df μm/tubules
- Testis Stage I~II semniferous tubule percentages [9]: 15.63 ± 2.39^df %/mm^2
- Body weight gains during 4 weeks of PTU treatment ([10]; 0.5 mg/kg intraperitoneally): 45.50 ± 14.55^fg
- Body weight gains during 6 weeks of total experiments ([10]; 0.5 mg/kg intraperitoneally): 173.00 ± 16.75^ab
- Body weight gains during 2 weeks of test material pretreatment ([10]; 0.5 mg/kg intraperitoneally group, period before LT4 and PTU dosing, in g (unit assumed)): 127.50 ± 13.15
- Absolute organ weights Thyroid gland [11]: 0.012 ± 0.003^c g
- Relative organ weights Thyroid gland [11]: 0.003 ± 0.001^c % of body weights
- Serum male reproductive hormone levels DHT [12]: 98.00 ± 13.43^ab pg/ml
- Serum male reproductive hormone levels FSH [12]: 21.01 ± 1.65^ab ng/ml
- Serum male reproductive hormone levels Testosterone [12]: 1.45 ± 0.18^fi ng/ml
